Experimental data as given in patent US4616028A, “Substituted 2,3,4,9-tetrahydro-1H-carbazole-1-acetic acid derivatives, compositions and use” (American Home Products Corporation, priority 1985, dated 1986).
Counter-ions that a name gives are not always drawn.

Tests used:
inflamed paw = assay: Paw Pressure Test in the Rat (Freund's adjuvant inflamed paw, pain threshold); type: in vivo, rat (male Sprague Dawley); conditions: for ED50: po
Excerpt: A still further test used to determine the utility of the compounds of the present invention is designated: PAW PRESSURE TEST IN THE RAT
The objective of this test is to assess the potency of peripheral and central acting drugs in inhibiting the reaction of rats to painful stimulation applied to an inflamed paw.
Male Sprague Dawley rats (180-200 g) are used. The animals are fasted overnight prior to drug administration.
(§1) Drug Preparation and Administration:
Freund's Complete Adjuvant (FCA) is prepared by suspending 5 mg killed and dried mycobacterium butyricum (Difco) in 1 ml liquid paraffin. The test compounds are dissolved, or suspended with a few drops of Tween 80, in distilled water according to their solubility. They are administered by gastric gavage in a volume of 0.5 ml/100 g body weight to groups of 10 animals.
Ten rats are used per group. The method is essentially that described by Randall, et al., Arch. Int. Pharmacodyn. 111, 409 (1957) and the apparatus which is used to apply pressure to the paw (Analgesy-meter for the rat paw, Ugo Basile from Coulbourn Instruments) is a modification of that described by Gilfoil et al., J. Pharmacol, 142, 1 (1963). The instrument is basically a device which exerts a force that increases at a constant rate. The force is continuously monitored by a pointer moving along a linear scale and is measured in grams. The inflammatory reaction is induced in the left hind paw of rats by injecting 0.1 ml of Freund's adjuvant intradermally. The test compound or vehicle is administered 24 hours after the adjuvant. Prior to drug administration the rats are selected for their paw sensitivity. Rats responding to a pain threshold greater than 10 g applied to the inflamed paw are rejected. The pain threshold (vocalization) is determined 1 and 3 hours later in the inflamed paw and the normal paw of the treated and control groups. The higher of the 2 readings will be considered as representative of the drug effect on the pain threshold.
Presentation of results and Criteria for Activity:
Each animal which has a reading 1.5 times greater than the mean reading of the control-group will be considered as responsive to treatment. The number of animals showing an analgesic effect is then determined in each group.
The ED50 (dose which causes analgesia in 50% of the animals) using at least 3 doses is then determined, by the method described in Litchfield et al., J. Pharmacol. Exp. Ther., 96, 99 (1949).

Adjuvant Edema = assay: Preventative Adjuvant Edema (Freund's complete adjuvant, hind paw volume); type: in vivo, rat (male Sprague Dawley); conditions: for Preventative Adjuvant Edema % Inhibition: p.o., rat; for ED50 / inhibition in vivo at 25 mg/kg / inhibition in vivo at 10 mg/kg: po; for ED50: ED50, rat (second results table); for inhibition in vivo at 25 mg/kg / inhibition in vivo at 10 mg/kg: 72 h, rat (second results table), read-out: Preventative Adjuvant Edema percent inhibition
Method: This test is a primary screen for anti-inflammatory drugs.
Male Sprague Dawley rats (180-200 g) are used. The animals have free access water but food is withdrawn 18 hours before testing.
Drug Preparations and Administration:
Freund's complete adjuvant is prepared by suspending 5 mg killed and dried Mycobacterium butyricum (Difco) in 1 ml liquid paraffin. The test compounds are dissolved in distilled water or suspended in distilled water with a few drops of Tween 80 according to their solubility. For primary screening all drugs are administrated by gastric lavage at the arbitrary dosage of 100 mg/kg, p.o. in a volume of 0.5 ml/100 g body weight to groups of 10 animals.
The method is essentially that described by Wax et al., J. Pharmacol. Exp. Ther., 192, 166-171 (1975). Groups of rats are injected intradermally in the left hind paw with 0.1 ml of Freund's complete adjuvant. The test compound or vehicle is administrated before the adjuvant, 24 hours and 48 hours after the adjuvant (day 0, 1 and 2). The injected hind paw volume is measured before the injection of adjuvant and 24 hrs. after the last drug administration (day 3) by means of a plethysmometer (Buxco Electronics Inc.). The difference between then hind paw volume on day 0 and day 3 represents the edema volume. Phenylbutazone (50 mg/kg, p.o.) is included as a positive control.
The mean edema volume (expressed as ml±SEM) is calculated for each group and the percentage protection conferred by the drug is calculated:
where c is the mean edema volume for the untreated controls and t is the mean edema volume for the drug treated group.

Phenylquinone Writhing = assay: Phenylquinone-induced writhing in mice; type: in vivo, mouse (male Swiss albino); conditions: for Phenylquinone Writhing in Mice % Inhibition: p.o.; for ED50 / inhibition in vivo at 25 mg/kg: Mus musculus, po; for ED50: ED50, mice (second results table); for inhibition in vivo at 25 mg/kg: mice (second results table), read-out: Phenylquinone Writhing in Mice percent inhibition
Method: A further test used to determine the utility of the compounds of the present invention is designated: DRUG EFFECTS ON PHENYLQUINONE-INDUCED WRITHING IN MICE […]
The objective of this test is to determine the ability of test drugs to inhibit the nociceptive (pain) response of mice injected with a chemical irritant. This test is a primary screen for both peripheral and centrally acting analgesic drugs.
Male Swiss albino mice (15-25 g). The animals are fasted for 18 hours prior to use but have free access to water.
as §1
Drugs are dissolved or suspended according to their solubility in 0.5% methyl cellulose or 0.5% Tween 80. They are administered by gastric lavage in a volume of 5 ml/kg. For primary screening all drugs are administered at the arbitrary dosage of 200 mg/kg, p.o. to a group of 10 mice.
A modification of the method of Siegmund at el., Proc. Soc. Exp. Biol. Med., 95, 729-731 (1957) is used. Groups of 5 mice are dosed with the test compound or vehicle control. Sixty minutes later the animals are injected i.p. with 0.3 ml/20 g body weight of a 0.02% solution of phenylquinone (PBQ; 2-phenyl-1,4-benzoquinone) and placed in individual observation boxes. The numer of writhing or abdominal squirming movements made by each mouse during the following 15 min. period is counted. The experiment is repeated with another group of 5 mice and the mean number of writhes per mouse for a group of 10 mice is calculated.
Drug treated and vehicle-treated control groups are compared and the percentage protection conferred by the drug is calculated:
Percentage protection=(c-t)100/c […]
where c=mean number of writhes in the control group where t=mean number of writhes in the test drug group

[1] = dose which causes analgesia in 50% of the animals, rat
[2] = ED50, rat (second results table)

C=CC[C@@H]1CC[C@](CC)(CC(=O)O)c2[nH]c3c(CC)cccc3c21 (relative stereo) [Example 1, cis-1,8-Diethyl-2,3,4,9-tetrahydro-4-(2-propenyl)-1H-carbazole-1-acetic Acid]
ED50 (inflamed paw; [1]): 0.02 mg/kg
Preventative Adjuvant Edema % Inhibition (Adjuvant Edema; 10 mg/kg): 31%
Preventative Adjuvant Edema % Inhibition (Adjuvant Edema; 25 mg/kg): 44%
Preventative Adjuvant Edema % Inhibition (Adjuvant Edema; 50 mg/kg): 38%
Phenylquinone Writhing in Mice % Inhibition (Phenylquinone Writhing; 10.6 mg/kg): 31%
Phenylquinone Writhing in Mice % Inhibition (Phenylquinone Writhing; 25 mg/kg): 60-80%
Phenylquinone Writhing in Mice % Inhibition (Phenylquinone Writhing; 200 mg/kg): 94%

C=CC[C@@H]1CC[C@](CC)(CC(=O)O)c2[nH]c3c(Cl)cccc3c21 (relative stereo) [Example 16]
ED50 (inflamed paw; [2]): 0.89 mg/kg
ED50 (Adjuvant Edema): 13 mg/kg
ED50 (Phenylquinone Writhing): 11 mg/kg

C=CC[C@@H]1CC[C@](CC)(CC(=O)O)c2[nH]c3c(CC)cccc3c21 [Example 44, (1R-cis)-1,8-Diethyl-2,3,4,9-tetrahydro-4-(2-propenyl)-1H-carbazole-1-acetic Acid Benzenemethanamine Salt (1:1)]
Paw Pressure Test in the Rat percent inhibition (inflamed paw; dose 1 mg/kg, rat): 30%
Paw Pressure Test in the Rat percent inhibition (inflamed paw; dose 5 mg/kg, rat): 40%
inhibition in vivo at 25 mg/kg (Adjuvant Edema): 0%
inhibition in vivo at 25 mg/kg (Phenylquinone Writhing): 5%

C=CC[C@@H]1CC[C@](CC)(CC(=O)O)c2[nH]c3ccc(CC)cc3c21 (relative stereo) [Example 6]
ED50 (inflamed paw; [2]): 0.01 mg/kg
inhibition in vivo at 10 mg/kg (Adjuvant Edema): 36%
inhibition in vivo at 25 mg/kg (Adjuvant Edema): 21%
ED50 (Phenylquinone Writhing): 103 mg/kg

C=CC[C@@H]1CC[C@](CC)(CC(=O)O)c2[nH]c3c(CCC)cccc3c21 (relative stereo) [Example 5]
ED50 (inflamed paw; [2]): 0.009 mg/kg
inhibition in vivo at 10 mg/kg (Adjuvant Edema): 29%
inhibition in vivo at 25 mg/kg (Adjuvant Edema): 39%
ED50 (Phenylquinone Writhing): 28.7 mg/kg

C=CCC1CCC(C)(CC(=O)O)c2[nH]c3ccccc3c21 (stereo not shown) [Example 12]
ED50 (inflamed paw; [2]): 1.9 mg/kg
ED50 (Adjuvant Edema): 6 mg/kg
ED50 (Phenylquinone Writhing): 18.7 mg/kg

C=CC[C@@H]1CC[C@](CC)(CC(=O)O)c2[nH]c3c(C)ccc(C)c3c21 (relative stereo) [Example 31]
ED50 (inflamed paw; [2]): 0.3 mg/kg
inhibition in vivo at 25 mg/kg (Adjuvant Edema): 42%
ED50 (Phenylquinone Writhing): 2.3 mg/kg

C=CC[C@@H]1CC[C@](CC)(CC(=O)O)c2[nH]c3c(Cl)c(Cl)ccc3c21 (relative stereo) [Example 32, cis-7,8-dichloro-1-ethyl-2,3,4,9-tetrahydro-4-(2-propenyl)-1H-carbazole-1-acetic acid]
ED50 (inflamed paw; [2]): 0.08 mg/kg
inhibition in vivo at 25 mg/kg (Adjuvant Edema): 22%
ED50 (Phenylquinone Writhing): 2 mg/kg

C=CC[C@H]1CC[C@@](CC)(CC(=O)O)c2[nH]c3c(CC)cccc3c21 [Example 45, (1S-cis)-1,8-Diethyl-2,3,4,9-tetrahydro-4-(2-propenyl)-1H-carbazole-1-acetic Acid Benzenemethanamine Salt (1:1)]
ED50 (inflamed paw; [2]): 0.011 mg/kg
inhibition in vivo at 25 mg/kg (Adjuvant Edema): 54%
inhibition in vivo at 25 mg/kg (Phenylquinone Writhing): 94%

C=CC[C@@H]1CC[C@](CC)(CC(=O)O)c2[nH]c3cc(CC)ccc3c21 (relative stereo) [Example 7]
ED50 (inflamed paw; [2]): 0.01 mg/kg
inhibition in vivo at 25 mg/kg (Adjuvant Edema): 36%
ED50 (Phenylquinone Writhing): 10 mg/kg

C=CC[C@@H]1CC[C@](CC)(CC(=O)O)c2[nH]c3c(Br)ccc(C)c3c21 (relative stereo) [Example 33]
ED50 (inflamed paw; [2]): 0.93 mg/kg
inhibition in vivo at 25 mg/kg (Adjuvant Edema): 27%
ED50 (Phenylquinone Writhing): 4.5 mg/kg

C=CC[C@@H]1CC[C@](CC)(CC(=O)O)c2[nH]c3ccccc3c21 (relative stereo) [Example 3, cis-1-Ethyl-2,3,4,9-tetrahydro-4-(2-propenyl)-1H-carbazole-1-acetic Acid]
ED50 (inflamed paw; [1]): 0.01 mg/kg
Preventative Adjuvant Edema % Inhibition (Adjuvant Edema; 10 mg/kg): 50%
Phenylquinone Writhing in Mice % Inhibition (Phenylquinone Writhing; 20 mg/kg): 50%

C=CC[C@@H]1CC[C@](CC)(CC(=O)O)c2[nH]c3c(C)c(F)ccc3c21 (relative stereo) [Example 29]
ED50 (inflamed paw; [2]): 0.1 mg/kg
ED50 (Adjuvant Edema): 6.4 mg/kg
ED50 (Phenylquinone Writhing): 12.3 mg/kg
